# Measurements taken from patent US9850283B2, “Macrocyclic inhibitors of the PD-1/PD-L1 and CD80(B7-1)/PD-L1 protein/protein interactions” (BRISTOL-MYERS SQUIBB COMPANY, priority 2013, dated 2017).
# Positions of bridges follow the written chain, without caps; N, C: chain ends. Non-standard residues stand in square brackets, D forms with d. Residues, ends and D or L forms follow the SMILES beside them. ξ: configuration not given here. Phe(4-guanidino) = N=C(N)Nc1ccc(C[C@H](N)C(=O)O)cc1; Phe(3,4-Cl2) = N[C@@H](Cc1ccc(Cl)c(Cl)c1)C(=O)O; Phe(2,4-Cl2) = N[C@@H](Cc1ccc(Cl)cc1Cl)C(=O)O; Phe(3-CN) = N#Cc1cccc(C[C@H](N)C(=O)O)c1; Phe(4-NH2) = Nc1ccc(C[C@H](N)C(=O)O)cc1; Phe(3-Me) = Cc1cccc(C[C@H](N)C(=O)O)c1; d(cisHyp) = O=C(O)[C@H]1C[C@@H](O)CN1; Bta = N[C@@H](Cc1csc2ccccc12)C(=O)O; Hyp = O=C(O)[C@@H]1C[C@@H](O)CN1; NMehSer = CN[C@@H](CCO)C(=O)O; NMeNle = CCCC[C@H](NC)C(=O)O; NMeA = CN[C@@H](C)C(=O)O; Nle = CCCC[C@H](N)C(=O)O; Dap = NC[C@H](N)C(=O)O; ξC = NC(CS)C(=O)O
# Tests used:
# Human PD-L1/PD-1 = biological target: T1, Human PD-L1/PD-1 (Homo sapiens, UniProt Q9NZQ7); assay: HTRF PD-1-Ig/PD-L1-His binding assay (human PD-L1); settings: cluster symbol; read-out: HTRF IC50 cluster
# T1 construct: made in house; host or cells: HEK293T
# Procedure, shortened: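 Soluble Fc-fused PD-1 and His-tagged PD-L1 (truncated before the transmembrane region) were combined in dPBS with 0.1% (w/v) BSA and 0.05% (v/v) Tween-20. Binding was read by HTRF using europium cryptate anti-Ig antibody (1 nM final) and APC anti-His antibody (20 nM final).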
# [1] = biological target: T2, LK35.2-hPD-L1 cells / PE-labeled PD-1-Ig (Homo sapiens, UniProt Q9NZQ7); assay: LK35.2-hPD-L1 cell binding high-content screening assay; type: cell-based; settings: cell binding assay, cell line not given; cluster symbol; read-out: CBA IC50 cluster
# T2 construct: expressed in transfected cells; host or cells: LK35.2 mouse B cell line
# Procedure, shortened: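 Readout: high-content imaging of PE-PD-1-Ig bound to LK35.2-hPD-L1 cells. Cells plated overnight (RPMI/10% FCS); compound + 1 nM PE-PD-1-Ig, 1 h, 37 °C; 3× dPBS wash before imaging.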
# T1 sequence (Q9NZQ7 with tags, fused parts or gaps): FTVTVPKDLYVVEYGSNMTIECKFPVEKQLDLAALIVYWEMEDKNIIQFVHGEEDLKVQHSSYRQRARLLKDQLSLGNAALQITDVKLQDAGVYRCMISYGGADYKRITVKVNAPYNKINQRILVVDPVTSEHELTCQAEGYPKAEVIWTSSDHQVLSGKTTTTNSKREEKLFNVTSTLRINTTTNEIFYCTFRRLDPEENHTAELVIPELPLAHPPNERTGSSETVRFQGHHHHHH
# T2 sequence (Q9NZQ7 19-290): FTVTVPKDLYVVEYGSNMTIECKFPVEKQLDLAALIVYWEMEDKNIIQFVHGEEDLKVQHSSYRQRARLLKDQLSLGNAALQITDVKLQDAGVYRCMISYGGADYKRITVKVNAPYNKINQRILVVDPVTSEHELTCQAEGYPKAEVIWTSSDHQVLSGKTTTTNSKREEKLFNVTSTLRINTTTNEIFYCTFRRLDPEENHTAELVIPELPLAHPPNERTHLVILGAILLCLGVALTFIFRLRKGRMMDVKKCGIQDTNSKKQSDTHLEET
IC50 (Human PD-L1/PD-1),IC50 [1],Structure (SMILES)
0.385 to 6.74 nM,4.78 to 72.9 nM,CCCC[C@H]1C(=O)N(C)[C@@H](CCCC)C(=O)N[C@@H](CCCNC(=N)N)C(=O)N[C@H](C(=O)NCC(N)=O)CSCC(=O)N[C@@H](Cc2cccc(C)c2)C(=O)N(C)[C@@H](C)C(=O)N[C@@H](CC(N)=O)C(=O)N2CCC[C@H]2C(=O)N[C@@H](Cc2cnc[nH]2)C(=O)N[C@@H](CC(C)C)C(=O)N2C[C@H](O)C[C@H]2C(=O)N[C@@H](Cc2c[nH]c3ccccc23)C(=O)N[C@@H](CO)C(=O)N[C@@H](Cc2c[nH]c3ccccc23)C(=O)N1C [Example 7057] ({CH2CO}-[Phe(3-Me)][NMeA]NPHL[Hyp]WSW[NMeNle][NMeNle]RCG-NH2; thioether N-14)
6.76 to 30.3 nM,> 74.3 nM,CCCC[C@H]1C(=O)N(C)[C@@H](CCCC)C(=O)N[C@@H](CCCNC(=N)N)C(=O)N[C@H](C(=O)NCC(N)=O)CSCC(=O)N[C@@H](Cc2cccc(C#N)c2)C(=O)N(C)[C@@H](C)C(=O)N[C@@H](CC(N)=O)C(=O)N2CCC[C@H]2C(=O)N[C@@H](Cc2cnc[nH]2)C(=O)N[C@@H](CC(C)C)C(=O)N2C[C@H](O)C[C@H]2C(=O)N[C@@H](Cc2c[nH]c3ccccc23)C(=O)N[C@@H](CO)C(=O)N[C@@H](Cc2c[nH]c3ccccc23)C(=O)N1C [Example 7058] ({CH2CO}-[Phe(3-CN)][NMeA]NPHL[Hyp]WSW[NMeNle][NMeNle]RCG-NH2; thioether N-14)
0.385 to 6.74 nM,4.78 to 72.9 nM,CCCC[C@H]1C(=O)N(C)[C@@H](CCCC)C(=O)N[C@@H](CCCNC(=N)N)C(=O)N[C@H](C(=O)NCC(N)=O)CSCC(=O)N[C@@H](Cc2ccc(N)cc2)C(=O)N(C)[C@@H](C)C(=O)N[C@@H](CC(N)=O)C(=O)N2CCC[C@H]2C(=O)N[C@@H](Cc2cnc[nH]2)C(=O)N[C@@H](CC(C)C)C(=O)N2C[C@H](O)C[C@H]2C(=O)N[C@@H](Cc2c[nH]c3ccccc23)C(=O)N[C@@H](CO)C(=O)N[C@@H](Cc2c[nH]c3ccccc23)C(=O)N1C [Example 7059] ({CH2CO}-[Phe(4-NH2)][NMeA]NPHL[Hyp]WSW[NMeNle][NMeNle]RCG-NH2; thioether N-14)
0.385 to 6.74 nM,0.158 to 4.71 nM,CCCC[C@H]1C(=O)N(C)[C@@H](CCCC)C(=O)N[C@@H](CCCNC(=N)N)C(=O)N[C@H](C(=O)NCC(N)=O)CSCC(=O)N[C@@H](Cc2ccc(OC)cc2)C(=O)N(C)[C@@H](C)C(=O)N[C@@H](CC(N)=O)C(=O)N2CCC[C@H]2C(=O)N[C@@H](Cc2cnc[nH]2)C(=O)N[C@@H](CC(C)C)C(=O)N2C[C@H](O)C[C@H]2C(=O)N[C@@H](Cc2c[nH]c3ccccc23)C(=O)N[C@@H](CO)C(=O)N[C@@H](Cc2c[nH]c3ccccc23)C(=O)N1C [Example 7060]
0.385 to 6.74 nM,4.78 to 72.9 nM,"CCCC[C@H]1C(=O)N(C)[C@@H](CCCC)C(=O)N[C@@H](CCCNC(=N)N)C(=O)N[C@H](C(=O)NCC(N)=O)CSCC(=O)N[C@@H](Cc2ccc(Cl)cc2Cl)C(=O)N(C)[C@@H](C)C(=O)N[C@@H](CC(N)=O)C(=O)N2CCC[C@H]2C(=O)N[C@@H](Cc2cnc[nH]2)C(=O)N[C@@H](CC(C)C)C(=O)N2C[C@H](O)C[C@H]2C(=O)N[C@@H](Cc2c[nH]c3ccccc23)C(=O)N[C@@H](CO)C(=O)N[C@@H](Cc2c[nH]c3ccccc23)C(=O)N1C [Example 7062] ({CH2CO}-[Phe(2,4-Cl2)][NMeA]NPHL[Hyp]WSW[NMeNle][NMeNle]RCG-NH2; thioether N-14)"
0.385 to 6.74 nM,4.78 to 72.9 nM,"CCCC[C@H]1C(=O)N(C)[C@@H](CCCC)C(=O)N[C@@H](CCCNC(=N)N)C(=O)N[C@H](C(=O)NCC(N)=O)CSCC(=O)N[C@@H](Cc2ccc(Cl)c(Cl)c2)C(=O)N(C)[C@@H](C)C(=O)N[C@@H](CC(N)=O)C(=O)N2CCC[C@H]2C(=O)N[C@@H](CN)C(=O)N[C@@H](CC(C)C)C(=O)N2C[C@H](O)C[C@H]2C(=O)N[C@@H](Cc2c[nH]c3ccccc23)C(=O)N[C@@H](CO)C(=O)N[C@@H](Cc2c[nH]c3ccccc23)C(=O)N1C [Example 7063] ({CH2CO}-[Phe(3,4-Cl2)][NMeA]NP[Dap]L[Hyp]WSW[NMeNle][NMeNle]RCG-NH2; thioether N-14)"
> 30.5 nM,> 74.3 nM,CCCC[C@H]1C(=O)N(C)[C@@H](CCCC)C(=O)N[C@@H](CCCNC(=N)N)C(=O)N[C@H](C(=O)NCC(N)=O)CSCC(=O)N[C@@H](Cc2ccc(N=C(N)N)cc2)C(=O)N(C)[C@@H](C)C(=O)N[C@@H](CC(N)=O)C(=O)N2CCC[C@H]2C(=O)N[C@@H](CN)C(=O)N[C@@H](CC(C)C)C(=O)N2C[C@H](O)C[C@H]2C(=O)N[C@@H](Cc2c[nH]c3ccccc23)C(=O)N[C@@H](CO)C(=O)N[C@@H](Cc2c[nH]c3ccccc23)C(=O)N1C [Example 7064] ({CH2CO}-[Phe(4-guanidino)][NMeA]NP[Dap]L[Hyp]WSW[NMeNle][NMeNle]RCG-NH2; thioether N-14)
6.76 to 30.3 nM,0.158 to 4.71 nM,CCCC[C@H]1C(=O)N(C)[C@@H](CCCC)C(=O)N[C@@H](CCCNC(=N)N)C(=O)NC(C(=O)NCC(N)=O)CSCC(=O)N[C@@H](Cc2ccc(O)cc2)C(=O)N(C)[C@@H](C)C(=O)N[C@@H](CC(N)=O)C(=O)N2C[C@H](O)C[C@H]2C(=O)N[C@@H](Cc2cnc[nH]2)C(=O)N[C@@H](CC(C)C)C(=O)N2CCC[C@@H]2C(=O)N[C@@H](Cc2c[nH]c3ccccc23)C(=O)N[C@@H](CO)C(=O)N[C@@H](Cc2csc3ccccc23)C(=O)N1C (stereo partly shown) [Example 9001] ({CH2CO}-Y[NMeA]N[Hyp]HL[dP]WS[Bta][NMeNle][NMeNle]R[ξC]G-NH2; thioether N-14)
6.76 to 30.3 nM,4.78 to 72.9 nM,CCCC[C@@H]1NC(=O)[C@H](Cc2cnc[nH]2)NC(=O)[C@@H]2CCCN2C(=O)[C@H](CC(N)=O)NC(=O)[C@H](C)N(C)C(=O)[C@H](Cc2ccc(O)cc2)NC(=O)CSCC(C(=O)NCC(N)=O)NC(=O)[C@H](CCCNC(=N)N)NC(=O)[C@H](CCCC)N(C)C(=O)[C@H](CCCC)N(C)C(=O)[C@H](Cc2csc3ccccc23)NC(=O)[C@H](CO)NC(=O)[C@H](Cc2c[nH]c3ccccc23)NC(=O)[C@H]2CCCN2C1=O (stereo partly shown) [Example 9002] ({CH2CO}-Y[NMeA]NPH[Nle][dP]WS[Bta][NMeNle][NMeNle]R[ξC]G-NH2; thioether N-14)
0.385 to 6.74 nM,0.158 to 4.71 nM,CCCC[C@H]1C(=O)N(C)[C@@H](CCOC)C(=O)N[C@@H](CCCNC(=N)N)C(=O)NC(C(=O)NCC(N)=O)CSCC(=O)N[C@@H](Cc2ccc(O)cc2)C(=O)N(C)[C@@H](C)C(=O)N[C@@H](CC(N)=O)C(=O)N2CCC[C@H]2C(=O)N[C@@H](Cc2cnc[nH]2)C(=O)N[C@@H](CC(C)C)C(=O)N2C[C@H](O)C[C@@H]2C(=O)N[C@@H](Cc2c[nH]c3ccccc23)C(=O)N[C@@H](CO)C(=O)N[C@@H](Cc2c[nH]c3ccccc23)C(=O)N1C (stereo partly shown) [Example 9003]
0.385 to 6.74 nM,4.78 to 72.9 nM,CCCC[C@H]1C(=O)N[C@@H](CCCNC(=N)N)C(=O)NC(C(=O)NCC(N)=O)CSCC(=O)N[C@@H](Cc2ccc(O)cc2)C(=O)N(C)[C@@H](C)C(=O)N[C@@H](CC(N)=O)C(=O)N2CCC[C@H]2C(=O)N[C@@H](Cc2cnc[nH]2)C(=O)N[C@@H](CC(C)C)C(=O)N2C[C@H](O)C[C@H]2C(=O)N[C@@H](Cc2c[nH]c3ccccc23)C(=O)N[C@@H](CO)C(=O)N[C@@H](Cc2c[nH]c3ccccc23)C(=O)N(C)[C@@H](CCOC)C(=O)N1C (stereo partly shown) [Example 9004]
0.385 to 6.74 nM,0.158 to 4.71 nM,CCCC[C@H]1C(=O)N(C)[C@@H](CCOC)C(=O)N[C@@H](CCCNC(=N)N)C(=O)N[C@H](C(=O)NCC(N)=O)CSCC(=O)N[C@@H](Cc2ccc(O)cc2)C(=O)N(C)[C@@H](C)C(=O)N[C@@H](CC(=O)O)C(=O)N2CCC[C@H]2C(=O)N[C@@H](Cc2cnc[nH]2)C(=O)N[C@@H](CC(C)C)C(=O)N2CCC[C@@H]2C(=O)N[C@@H](Cc2c[nH]c3ccccc23)C(=O)N[C@@H](CO)C(=O)N[C@@H](Cc2c[nH]c3ccccc23)C(=O)N1C [Example 9005] ({CH2CO}-Y[NMeA]DPHL[dP]WSW[NMeNle][NMehSer](Me)RCG-NH2; thioether N-14)
0.385 to 6.74 nM,0.158 to 4.71 nM,CCCC[C@H]1C(=O)N(C)[C@@H](CCOC)C(=O)N[C@@H](CCCNC(=N)N)C(=O)N[C@H](C(=O)NCC(N)=O)CSCC(=O)N[C@@H](Cc2ccc(O)cc2)C(=O)N(C)[C@@H](C)C(=O)N[C@@H](CC(N)=O)C(=O)N2CCC[C@H]2C(=O)N[C@@H](Cc2cnc[nH]2)C(=O)N[C@@H](CC(C)C)C(=O)N2C[C@H](O)C[C@@H]2C(=O)N[C@@H](Cc2c[nH]c3ccccc23)C(=O)N[C@@H](CO)C(=O)N[C@@H](Cc2csc3ccccc23)C(=O)N1C [Example 9006] ({CH2CO}-Y[NMeA]NPHL[d(cisHyp)]WS[Bta][NMeNle][NMehSer](Me)RCG-NH2; thioether N-14)
0.385 to 6.74 nM,0.158 to 4.71 nM,CCCC[C@H]1C(=O)N[C@@H](CCCNC(=N)N)C(=O)N[C@H](C(=O)NCC(N)=O)CSCC(=O)N[C@@H](Cc2ccc(O)cc2)C(=O)N(C)[C@@H](C)C(=O)N[C@@H](CC(N)=O)C(=O)N2CCC[C@H]2C(=O)N[C@@H](Cc2cnc[nH]2)C(=O)N[C@@H](CC(C)C)C(=O)N2C[C@H](O)C[C@@H]2C(=O)N[C@@H](Cc2c[nH]c3ccccc23)C(=O)N[C@@H](CO)C(=O)N[C@@H](Cc2csc3ccccc23)C(=O)N(C)[C@@H](CCOC)C(=O)N1C [Example 9007] ({CH2CO}-Y[NMeA]NPHL[d(cisHyp)]WS[Bta][NMehSer](Me)[NMeNle]RCG-NH2; thioether N-14)
